For data set [1], the system named is p-Hsp27 (Ser82) and p-MK2 (T334) in THP-1 derived macrophages. Briefly: Western blot of MK2 signaling in LPS-stimulated THP-1 derived macrophages. It is filed as cell-based, human. The note with it: 1 h preincubation, LPS 100 ng/mL 30 min. As to the method: FIGURE 4 Targeting cellular MK2 signaling with irreversible inhibition by compound 11. (A and B) RT‐PCR analysis of IL‐1β, TNF‐α, and IL‐6 expression in Lipopolysaccharides (LPS)‐stimulated THP‐1 (A) and RAW264.7 (B) Cells, with pre‐treatment of compound 11 for 3 h followed by LPS (3 h) stimulation. (C) The inhibitory effects of compound 11 on TNF‐α and IL‐6 production in LPS‐stimulated RAW264.7 macrophages for 24 h, measured by ELISA. (D and E) Compound 11, alongside CC‐99677 and PF‐3644022, suppressed MK2 pathway activation, validated through western blot analysis post‐LPS stimulation. Cells were preincubated with the specified compounds for 1 h prior to LPS stimulation (100 ng/mL, 30 min). (F) Distinguishes the mode of action between compound 11 and CC‐99677. The complex structure of a small molecule and MK2 (3R2Y) with the same parent nucleus as compound 11 is shown in cyans, and the complex structure of a small molecule and MK2 (3FYJ) with the same parent nucleus as CC‐99677 is shown in orange. (G–I) The effect of indicated inhibitor on Hsp27 phosphorylation following inhibitor washout. Cells were pretreated with indicated compounds for 1 h and then washed to remove free compound and incubated for a further indicated time before activation with LPS. In (A–C), LPS (100 ng/mL) served as the stimulation control, while untreated cells were the baseline control. The data represent as mean ± SD from triplicates, with statistical analysis conducted via one‐way analysis of variance (ANOVA) (^## p < 0.01, ^### p < 0.001 vs. stimulation control; ^***p < 0.001 vs. baseline control).
Next, the efficacy of compound 11 in cellular MK2 signaling inhibition was evaluated by examining both p‐MK2 and p‐Hsp27 at Ser82 levels, the latter being a direct downstream substrate of p‐MK2. […] We try to explore this interesting phenomenon by superimposing the complex crystal structure (3FYJ) that harboring the same skeleton as CC‐99677 (Figure 4F). […] In that way, CC‐99677 binding to MK2 kinase after pre‐incubation with cells and after LPS stimulation may cause the difference in the spatial conformation of MK2 kinase domain, which may make p38 cannot properly bind to MK2, resulting in a decrease in the phosphorylation of MK2.
After the treatment outlined in the figure legends, cells were lysed using 1× sodium dodecyl sulfate (SDS) solution. The lysates were then subjected to SDS‐polyacrylamide gel electrophoresis for separation, followed by transferring onto nitrocellulose membranes. […] Protein bands were detected using an enhanced chemiluminescence detection reagent (Thermo Fisher Scientific).

Another data set concerns p-Hsp27 in THP-1 cells. Briefly: Western blot of p-Hsp27 in IL-4/IL-13 treated THP-1 cells. The note with it: 1 h pretreatment, IL-4/IL-13 30 min. In kind it is cell-based, human. The source says:
A previous study has reported that MK2 fostered M2‐like polarization of TAMs, driving a protumor and proangiogenic phenotype which in turn accelerates tumor progression.[21] We thus assessed the influence of compound 11 on macrophage polarization and function. Our experiments used human THP‐1 monocyte induced macrophages, mouse RAW264.7 macrophages, and mouse bone marrow‐derived macrophages (BMDM). These cells were induced into M2‐like macrophages using the classic IL‐4 and IL‐13 stimuli.
FIGURE 5 Inhibition of pro‐tumorigenic M2‐like polarization in macrophages by compound 11. (A–C) RT‐PCR analysis highlights the impact of compound 11 on MRC1 and ARG‐1 mRNA expression in various macrophage cells treated with IL‐4/IL‐13 alone or combined with compound 11 for 12 h or 24 h. (D) CD206 and Arg‐1 expression in bone marrow‐derived macrophages (BMDM) cells via flow cytometry post 48 h treatment of compound 11 and IL‐4/IL‐13. (E) The treatment effects of compound 11 in THP‐1 cells using western blot analysis. […] Data are shown as the mean ± SD. ^* p < 0.05; ^*** p < 0.001 versus the vehicle group, determined by unpaired t test. […]
After the treatment outlined in the figure legends, cells were lysed using 1× sodium dodecyl sulfate (SDS) solution. […] Protein bands were detected using an enhanced chemiluminescence detection reagent (Thermo Fisher Scientific).
(In western blotting, separated proteins are transferred to a membrane and probed.)

The nature of data set [2]: Cell viability assay (CCK-8), THP-1. The note with it: THP-1 cells (monocyte), THP-1, human monocyte, read-out: IC50 (μM) mean ± SD, cytotoxicity. In kind it is cell-based. As to the method:
(§1) In cellular experiments, cells are seeded into either 6-well or 96-well plates and incubated overnight, proceeding with treatments as described in the figure legends or methods section. The cell inoculation numbers are outlined as follows: For assays measuring cell viability, between 3,000 to 5,000 cells are seeded per well in 96-well plates. For other cellular assays, the seeding density ranges from 5×10^5 to 1×10^6 cells per well in 6-well plates.
(§2) Cells was plated into 96-well plates and incubated overnight prior to introduction of varying concentrations of compounds or control solvent. Following a 72-hour exposure period, cell viability was determined using a Cell Counting Kit-8 assay (Life-iLab, China). Dose-response curves were fitted using a four-parameter method facilitated by SoftMax Pro, which was subsequently used for the computation of IC50 values.

Data set [3] in a line: Cell viability assay (CCK-8), HEK293. It is filed as cell-based. The conditions noted are these: HEK293 cells (embryo kidney), HEK293, human embryo kidney, read-out: IC50 (μM) mean ± SD, cytotoxicity. As for the experimental part: as §1, §2
A short description of data set [4]: Cell viability assay (CCK-8), CT26. In kind it is cell-based. The conditions noted are these: mouse, CT26 cells (colorectal carcinoma), CT26, murine colorectal carcinoma, read-out: IC50 (μM) mean ± SD, cytotoxicity. As for the experimental part: as §1, §2
Data set [5] is described as follows: Cell viability assay (CCK-8), PANC-1. In kind it is cell-based. The note with it: PANC-1 cells (pancreatic carcinoma), PANC-1, human pancreatic carcinoma, read-out: IC50 (μM) mean ± SD, cytotoxicity. As for the experimental part: as §1, §2

The structures appear in SMILES notation.

A word on the IC50: it is the concentration that inhibits the measured activity by half.

On to `C=CC(=O)Nc1cc(-c2cc(-c3cc4c([nH]3)CCNC4=O)ccn2)ccc1OC(F)(F)F` [compound 11], for which the “effect on MK2 phosphorylation at T334 site” value in data set [1] is recorded as “did not inhibit”. Further, in data set [1], the “effect on phosphorylation of Hsp27 (Ser82)” value was “significantly inhibited”. In the data set with p-Hsp27 in THP-1 cells, the “effect on p-Hsp27” value is “significant inhibition”. In addition, the half-inhibitory concentration (IC50) at 72 h in data set [2] is 34.7 ± 0.4 µM; in data set [3], 29.9 ± 7.2 µM; in data set [4], 47.2 ± 2.4 µM; in data set [5], 35.3 ± 1.4 µM.
